Assay results as given in patent publication US20030215788A1, “Cysteine thiol-protected peptides for use in immunoassays” (priority 1989, published 2003).

Tested on: Antibodies to HIV-2
Assay: EIA of dilutional series of HIV-2 positive sera
Assay type: binding, human
Procedure: Alternative methods of testing immunologic cross-reactivity were also used. In one such method L5 Peptides 39 and 39GC were tested by ELISA as previously described in U.S. Pat. No. 4,629,783. Briefly, stock solutions of peptides 39 and 39-GC were prepared in 6M Gu-HCl. Working dilutions of 20 µg/ml and 6 μg/ml respectively were prepared by dilution of stock solution 0 with 0.05M carbonate/bicarbonate buffer, pH 9.5. Wells of microtiter plates were filled with 100 μl of the working dilution of the peptides and allowed to stand overnight at room temperature. Coating solution was removed and 300 μl of blocking solution supra containing 0.5M ethanolamine was added for 1 hr. at room temperature. Blocking solution was removed and the plates were used immediately or allowed to dry and stored for later use.
Plasma samples were diluted (See Table 1) in sample dilution buffer (above) and 100 μl was added to individual wells. Samples were incubated for 30 min. at 37° C., then removed and the wells were washed six times with 0.15M NaCl, 0.05% Tween 20. One hundred microliters of goat antihuman Ig-horseradish peroxidase conjugate diluted in citrate buffer, pH 7.0, 1% normal goat serum was added to each well for 30 min at 37° C. prior to washing six times as above. The ELISA assay was developed by adding 100 μl/well of substrate solution (80 μg/ml tetramethyl benzidine, 0.0015% hydrogen peroxide in citrate/phosphate buffer, pH 6.0) for 30 min. at room temperature. Reactions were stopped with the addition of 100 μl of H2SO4 per well, and the ratio of the optical density at 450 nm to 630 nm was determined by an automated ELISA reader. The cutoff value for a positive result was set at 0.225 Absorbance Units above the average absorbance obtained for three known negative samples.
The immunoreactivity of HIV-2 peptides synthesized with protected cysteine thiol groups was determined. […] EIAs were performed as described above using viral lysates of HIV-1 and HIV-2 and peptides 39GC (HIV-1) and 41-2-3GC. Reactivity was determined for dilutions of two HIV-2 positive sera, F504282, obtained from a patient in New York, and “GOM,” provided by the Institut Pasteur.
The assays were EIAs performed generally as described above with varying dilutions of HIV-2 positive serum specimens.

Cys-Gly-Gly-Arg-Ile-Leu-Ala-Val-Glu-Arg-Tyr-Leu-Lys-Asp-Gln-Gln-Leu-Leu-Gly-Ile-Trp-Gly-Cys*-Ser-Gly-Lys-Leu-Ile-Cys*-NH2 [Peptide 39GC]
Reactivity in EIA (HIV-2 positive serum F504282 (A), 1:5): 0.049
Reactivity in EIA (HIV-2 positive serum F504282 (A), 1:10): 0.042
Reactivity in EIA (HIV-2 positive serum F504282 (A), 1:20): 0.037
Reactivity in EIA (HIV-2 positive serum F504282 (A), 1:40): 0.035
Reactivity in EIA (HIV-2 positive serum F504282 (A), 1:80): 0.033
Reactivity in EIA (HIV-2 positive serum F504282 (A), 1:160): 0.040
Reactivity in EIA (HIV-2 positive serum F504282 (A), 1:320): 0.031
Reactivity in EIA (HIV-2 positive serum F504282 (A), 1:640): 0.031
Reactivity in EIA (HIV-2 positive serum F504282 (A), 1:1280): 0.039
Reactivity in EIA (HIV-2 positive serum F504282 (A), 1:2560): 0.030
Reactivity in EIA (HIV-2 positive serum F504282 (A), Neat): 0.075
Reactivity in EIA (HIV-2 positive serum GOM (B), 1:2): 0.052
Reactivity in EIA (HIV-2 positive serum GOM (B), 1:4): 0.037
Reactivity in EIA (HIV-2 positive serum GOM (B), 1:8): 0.040
Reactivity in EIA (HIV-2 positive serum GOM (B), 1:16): 0.031
Reactivity in EIA (HIV-2 positive serum GOM (B), 1:32): 0.035
Reactivity in EIA (HIV-2 positive serum GOM (B), 1:64): 0.074
Reactivity in EIA (HIV-2 positive serum GOM (B), 1:128): 0.031
Reactivity in EIA (HIV-2 positive serum GOM (B), 1:256): 0.035
Reactivity in EIA (HIV-2 positive serum GOM (B), 1:512): 0.040
Reactivity in EIA (HIV-2 positive serum GOM (B), 1:1024): 0.037
